Laboratory results as given in publication PMC9388863, “Congeners-Specific Intestinal Absorption Of Microcystins In An In Vitro 3D Human Intestinal Epithelium: The Role Of Influx/Efflux Transporters” (Frontiers in Toxicology, 2022).
*1 amine or outer side, *2 acyl side, *3 side chain or, on linkers, in order; H or OH if unused. Where a SMILES comes first, the peptide text is derived from it. Bridges are numbered along the chain shown (N, C = ends). [ ]: non-standard residue; d: D form. Adda = CO[C@@H](Cc1ccccc1)[C@@H](C)/C=C(C)/C=C/[C@H](N[*:1])[C@H](C)C(=O)[*:2]; dAsp(3S-Me) = C[C@H](C(=O)[*:3])[C@@H](N[*:1])C(=O)[*:2]; d(γGlu) = O=C(O)[C@@H](CCC(=O)[*:2])N[*:1]; NMeDha = C=C(NC)C(=O)O

What was measured:
[1] = system: EpiIntestinal™ 3D human reconstructed intestinal epithelium; format: in vitro ADME
EpiIntestinal™ tissues [2] = format: cell-based, human
EpiIntestinal™ tissues [3] = format: in vitro ADME, human
P-gp = molecular target: T1, P-gp (Homo sapiens, UniProt P08183); experiment: Transport with/without P-gp inhibitor verapamil in EpiIntestinal™; format: in vitro ADME
T1 construct: EpiIntestinal™ tissues express all the influx and efflux transporters that are considered relevant; host or cells: EpiIntestinal™ 3D reconstructed human small-intestinal epithelium (normal human primary cells, single donor)
T1 sequence (P08183 whole entry): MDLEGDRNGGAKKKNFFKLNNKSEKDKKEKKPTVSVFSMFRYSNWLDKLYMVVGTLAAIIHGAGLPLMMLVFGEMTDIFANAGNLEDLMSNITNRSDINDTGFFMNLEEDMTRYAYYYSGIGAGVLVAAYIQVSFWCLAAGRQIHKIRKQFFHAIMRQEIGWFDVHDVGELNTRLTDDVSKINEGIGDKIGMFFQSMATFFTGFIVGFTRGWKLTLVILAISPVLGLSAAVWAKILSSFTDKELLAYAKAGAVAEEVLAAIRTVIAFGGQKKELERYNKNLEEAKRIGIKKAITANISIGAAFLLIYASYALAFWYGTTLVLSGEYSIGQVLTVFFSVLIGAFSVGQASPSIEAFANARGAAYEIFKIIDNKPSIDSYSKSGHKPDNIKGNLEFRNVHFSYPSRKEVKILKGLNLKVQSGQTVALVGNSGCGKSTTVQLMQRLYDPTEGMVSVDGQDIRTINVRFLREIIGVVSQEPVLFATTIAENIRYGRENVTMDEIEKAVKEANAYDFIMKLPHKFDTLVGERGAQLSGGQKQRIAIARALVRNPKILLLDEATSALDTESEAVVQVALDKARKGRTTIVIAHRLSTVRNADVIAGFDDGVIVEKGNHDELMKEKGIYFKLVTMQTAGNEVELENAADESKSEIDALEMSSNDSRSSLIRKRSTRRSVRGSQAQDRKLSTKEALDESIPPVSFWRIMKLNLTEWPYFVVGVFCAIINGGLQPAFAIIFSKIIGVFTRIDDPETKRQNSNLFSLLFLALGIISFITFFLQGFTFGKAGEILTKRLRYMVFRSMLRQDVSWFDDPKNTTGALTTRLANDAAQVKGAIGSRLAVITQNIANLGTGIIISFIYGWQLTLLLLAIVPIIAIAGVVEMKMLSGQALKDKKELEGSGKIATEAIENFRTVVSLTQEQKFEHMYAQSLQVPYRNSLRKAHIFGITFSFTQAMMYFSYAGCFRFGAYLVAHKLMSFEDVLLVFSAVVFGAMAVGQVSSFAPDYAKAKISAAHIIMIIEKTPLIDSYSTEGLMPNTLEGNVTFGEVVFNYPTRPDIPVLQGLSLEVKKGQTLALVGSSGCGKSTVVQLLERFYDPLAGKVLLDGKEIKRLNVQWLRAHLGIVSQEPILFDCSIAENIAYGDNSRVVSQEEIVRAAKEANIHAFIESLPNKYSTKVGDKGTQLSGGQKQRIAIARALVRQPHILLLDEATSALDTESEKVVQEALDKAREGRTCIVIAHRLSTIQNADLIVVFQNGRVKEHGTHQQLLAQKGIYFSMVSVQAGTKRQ

MRP2 [4] = molecular target: T2, MRP2 (Homo sapiens, UniProt Q92887); format: in vitro ADME
T2 construct: EpiIntestinal™ tissues express all the influx and efflux transporters that are considered relevant; host or cells: EpiIntestinal™ 3D reconstructed human small-intestinal epithelium (normal human primary cells, single donor)
T2 sequence (Q92887 whole entry): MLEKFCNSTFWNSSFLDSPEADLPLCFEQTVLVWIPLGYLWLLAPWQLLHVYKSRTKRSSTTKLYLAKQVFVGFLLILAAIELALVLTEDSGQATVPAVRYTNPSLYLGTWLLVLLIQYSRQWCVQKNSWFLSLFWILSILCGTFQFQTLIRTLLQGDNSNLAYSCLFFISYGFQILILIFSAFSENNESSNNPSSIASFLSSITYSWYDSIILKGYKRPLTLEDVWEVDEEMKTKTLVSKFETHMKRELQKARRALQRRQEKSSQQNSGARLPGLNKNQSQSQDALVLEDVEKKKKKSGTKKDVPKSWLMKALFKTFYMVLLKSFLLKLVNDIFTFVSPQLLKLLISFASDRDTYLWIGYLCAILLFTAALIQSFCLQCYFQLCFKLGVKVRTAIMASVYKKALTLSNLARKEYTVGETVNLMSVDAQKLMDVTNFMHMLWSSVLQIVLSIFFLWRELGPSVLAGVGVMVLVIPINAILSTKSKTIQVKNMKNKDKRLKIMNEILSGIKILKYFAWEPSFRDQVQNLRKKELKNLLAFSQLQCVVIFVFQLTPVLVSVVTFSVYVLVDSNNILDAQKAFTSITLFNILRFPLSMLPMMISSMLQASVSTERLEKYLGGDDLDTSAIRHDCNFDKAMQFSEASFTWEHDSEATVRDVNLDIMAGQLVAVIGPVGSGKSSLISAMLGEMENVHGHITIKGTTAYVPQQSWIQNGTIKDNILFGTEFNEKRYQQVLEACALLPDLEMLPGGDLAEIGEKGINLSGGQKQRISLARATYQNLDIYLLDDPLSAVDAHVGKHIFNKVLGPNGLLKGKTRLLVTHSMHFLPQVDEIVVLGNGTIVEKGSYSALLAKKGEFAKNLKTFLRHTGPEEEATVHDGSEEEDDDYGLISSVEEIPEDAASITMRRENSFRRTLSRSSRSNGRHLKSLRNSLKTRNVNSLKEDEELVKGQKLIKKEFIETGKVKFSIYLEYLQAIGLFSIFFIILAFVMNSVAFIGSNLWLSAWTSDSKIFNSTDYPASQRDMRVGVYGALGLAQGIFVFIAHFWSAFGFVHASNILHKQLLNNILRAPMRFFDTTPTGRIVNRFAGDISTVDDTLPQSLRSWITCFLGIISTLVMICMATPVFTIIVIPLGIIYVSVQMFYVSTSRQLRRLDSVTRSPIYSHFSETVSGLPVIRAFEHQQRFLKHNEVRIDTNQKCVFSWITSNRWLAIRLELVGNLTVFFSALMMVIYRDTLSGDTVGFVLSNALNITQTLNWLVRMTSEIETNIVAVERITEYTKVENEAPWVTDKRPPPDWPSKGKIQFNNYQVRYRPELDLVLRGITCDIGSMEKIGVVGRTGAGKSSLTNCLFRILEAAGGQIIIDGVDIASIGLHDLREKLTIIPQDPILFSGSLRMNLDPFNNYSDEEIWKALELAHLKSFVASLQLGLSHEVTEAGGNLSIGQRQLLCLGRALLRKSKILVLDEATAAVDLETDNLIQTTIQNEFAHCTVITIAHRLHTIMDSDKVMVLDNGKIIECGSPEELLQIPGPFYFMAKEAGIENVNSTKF

Caco-2 cell monolayers = conditions: cited from earlier work
BCRP = experiment: in vitro; conditions: human, not told
MRP2 [5] = molecular target: T2, MRP2; conditions: cited from earlier work
OATP 2B1 = OATP 2B1 (Homo sapiens, UniProt O94956); format: in vitro ADME
Sequence of OATP 2B1 (O94956 whole entry): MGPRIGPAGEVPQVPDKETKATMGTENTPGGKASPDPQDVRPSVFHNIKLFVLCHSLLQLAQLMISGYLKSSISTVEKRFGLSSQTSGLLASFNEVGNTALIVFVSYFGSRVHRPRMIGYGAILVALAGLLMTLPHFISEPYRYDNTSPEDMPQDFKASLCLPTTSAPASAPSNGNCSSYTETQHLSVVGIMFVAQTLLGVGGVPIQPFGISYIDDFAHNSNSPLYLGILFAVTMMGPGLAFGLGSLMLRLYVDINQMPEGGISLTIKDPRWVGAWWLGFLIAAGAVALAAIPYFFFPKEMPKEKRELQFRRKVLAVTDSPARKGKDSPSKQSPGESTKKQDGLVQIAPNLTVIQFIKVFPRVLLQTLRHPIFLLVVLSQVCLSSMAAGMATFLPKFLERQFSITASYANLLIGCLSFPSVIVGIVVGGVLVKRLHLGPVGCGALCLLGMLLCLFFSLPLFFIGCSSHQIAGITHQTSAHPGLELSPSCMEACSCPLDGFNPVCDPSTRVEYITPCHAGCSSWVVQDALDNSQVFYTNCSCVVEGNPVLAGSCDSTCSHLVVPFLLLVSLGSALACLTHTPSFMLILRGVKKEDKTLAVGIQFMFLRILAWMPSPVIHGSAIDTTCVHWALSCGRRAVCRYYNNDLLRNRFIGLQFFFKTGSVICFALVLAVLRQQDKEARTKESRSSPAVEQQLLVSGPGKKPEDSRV

Compound	absorption (parent compound detected in the BL compartment), % of the administered dose [1]	amount recovered in the BL compartment at 4 h, percentage of the applied dose [1] [%]	dependence of Papp on the donor concentration [1]	toxicity, measured as barrier integrity with LY (EpiIntestinal™ tissues [2])	Efflux ratio (ER), Papp BL-AP / Papp AP-BL (EpiIntestinal™ tissues [3])	effect of co-administration of verapamil (P-gp inhibitor) on MC transport (P-gp)	effect of cyclosporin on MC transport (MRP2 [4])	toxin reaching the basolateral compartment (Caco-2 cell monolayers)	efflux ratio (BCRP)	amount recovered in the cellular pellet, % of the administered dose [1]	transport (efflux) by MRP2 (MRP2 [5])	effect of pravastatin (OATP 2B1 inhibitor) on MC uptake (OATP 2B1)	permeability coefficient Papp (AP-BL), time course [1]	time at which toxin was detectable in the receptor fluid [1] [min]
C=C1C(=O)N[C@H](C)C(=O)N[C@@H](CC(C)C)C(=O)N[C@@H](C(=O)O)[C@H](C)C(=O)N[C@@H](CCCNC(=N)N)C(=O)N[C@@H](/C=C/C(C)=C/[C@H](C)[C@H](Cc2ccccc2)OC)[C@H](C)C(=O)N[C@@H](C(=O)O)CCC(=O)N1C [MC-LR, Microcystin-LR] (R[Adda][d(γGlu)][NMeDha][dA]L[dAsp(3S-Me)]-OH; lactam N-7)	around 5%	4.6	independent on the donor concentrations	no toxicity	3.65	not affected	significantly decreased the efflux	0.3–1.35%						
C[C@]12CC[C@H]3[C@@H](CCC4=CC(=O)CC[C@@]43C)[C@@H]1CC[C@@H]2O [testosterone, Testosterone]									1.95					
Microcystin-LF [MC-LF]			dose dependent increase in permeability	no toxicity						less than 1%	transported more rapidly than MC-LR and–RR			
Microcystin-LW [MC-LW]			dose dependent increase in permeability	no toxicity	2.65	not affected	not reaching the statistical significance			less than 1%		slightly decreased		
Microcystin-RR [MC-RR]	around 5%	3.6	independent on the donor concentrations	no toxicity									5.73	30
Microcystin-YR [MC-YR]	around 5%	4.3	independent on the donor concentrations	no toxicity										
